The source of these data is DBAASP.

Converted amounts (≈) assume the structure as drawn.

What is called MIC is the lowest concentration found to suppress growth. Higher therefore signals a need for much substance.

Test systems include Streptococcus iniae; Vibrio parahaemolyticus; Vibrio harveyi; Vibrio alginolyticus; Lactococcus garvieae; Escherichia coli; Escherichia coli U7794; Candida albicans; Escherichia coli U7103; Staphylococcus aureus.
What all share (assay): ≥ marks a high value that may be exact or a test limit, other limits are often not marked, values filed in µg/mL are converted to µM
Assay [1] deals with Staphylococcus aureus BCRC 10780.
Assay [2] relates to Klebsiella oxytoca BCRC 13985.
For assay [3], the system named is Escherichia coli BCRC 10675.
The subject of assay [4] is Vibrio anguillarum serotype O1.
The test system of assay [5] is Staphylococcus aureus BCRC 10781.
For assay [6], the system named is Enterobacter cloacae BCRC 10401.
The test system of assay [7] is Klebsiella aerogenes BCRC 10370.
The test system of assay [8] is Streptococcus equinus BCRC 14729.
The test system of assay [9] is Vibrio alginolyticus BCRC 12829.
Assay [10] has as its system Pseudomonas aeruginosa BCRC 10944.
For assay [11], the system named is Staphylococcus xylosus BCRC 12930.
For assay [12], the system named is Listeria monocytogenes BCRC 14845.
Assay [13] relates to Yersinia enterocolitica BCRC 13999.
In assay [14] the test system is Vibrio parahaemolyticus BCRC 10806.
The subject of assay [15] is Escherichia coli ATCC 25922.
Assay [16] deals with Escherichia coli O157:H7 282.
Assay [17] deals with Proteus mirabilis ATCC 25933.
Assay [18] concerns Escherichia coli 0112 EIEC27.
For assay [19], the system named is Escherichia coli 0112 EIEC26.
The test system of assay [20] is Enterococcus faecalis ATCC 29212.
In assay [21] the test system is Escherichia coli O26:H- CB6418.
For assay [22], the system named is Enterobacter cloacae NHTCC 53001.
Assay [23] has as its system Staphylococcus aureus NCTC 8325.
For assay [24], the system named is Escherichia coli O26:H11 3.
Assay [25] deals with Escherichia coli 0143 EIEC7.
For assay [26], the system named is Escherichia coli O157:H7 734/94.
Assay [27] relates to Pseudomonas aeruginosa ATCC 27853.
Assay [28] relates to Escherichia coli 0152 EIEC1.
Assay [29] relates to Escherichia coli AX-109-2-3.
In assay [30] the test system is Staphylococcus epidermidis RP62A.
In assay [31] the test system is Klebsiella pneumoniae KK3 9904.
Assay [32] concerns Escherichia coli O157:H7 30328.
Assay [33] relates to Escherichia coli 0164 EIEC6.
Assay [34] has as its system Escherichia coli AX-128-3-3.
Assay [35] concerns Escherichia coli O6:K15:H31 536.
The subject of assay [36] is Escherichia coli ATCC 35218.
The test system of assay [37] is Escherichia coli AX-100-3-1.
Assay [38] relates to Escherichia coli AX-054-1-3.
The subject of assay [39] is Escherichia coli O157:H7 CB6392.
The subject of assay [40] is Staphylococcus aureus ATCC 6538.
In assay [41] the test system is Corynebacterium diphtheriae ATCC 8024.
Assay [42] concerns Shigella flexneri ATCC 203.
The subject of assay [43] is Bacillus subtilis ATCC 6633.
Assay [44] deals with Candida albicans ATCC 36232.
Assay [45] has as its system Staphylococcus epidermidis ATCC 12228.
Assay [46] relates to Micrococcus luteus ATCC 9341.
Assay [47] relates to Escherichia coli ATCC 2592.
In assay [48] the test system is Pseudomonas aeruginosa ATCC 9027.

Turning to `CC[C@H](C)[C@H](NC(=O)[C@@H](NC(=O)[C@H](Cc1ccccc1)NC(=O)[C@H](Cc1ccc(O)cc1)NC(=O)[C@H](CCCCN)NC(=O)[C@H](CCCCN)NC(=O)[C@H](CC(C)C)NC(=O)[C@H](C)NC(=O)[C@H](CC(N)=O)NC(=O)[C@H](C)NC(=O)CN)[C@@H](C)O)C(=O)N[C@@H](CC(C)C)C(=O)N[C@@H](CCCCN)C(=O)N[C@@H](CCCCN)C(=O)N[C@@H](Cc1ccccc1)C(=O)N[C@@H](Cc1ccccc1)C(=O)N[C@@H](CCCCN)C(=O)N[C@@H](CC(C)C)C(=O)N[C@@H](C)C(=O)N[C@@H](Cc1c[nH]c2ccccc12)C(=O)O` [GANALKKYFTILKKFFKLAW], the MIC in assay [1] was found to be 6.7 µM (≈ 16 µg/mL); in assay [2], 26.8 µM (≈ 64 µg/mL); in [3], 3.35 µM (≈ 8 µg/mL); against Streptococcus iniae, 26.8 µM (≈ 64 µg/mL); in assay [4], 6.7 µM (≈ 16 µg/mL); in the assay on Vibrio parahaemolyticus, 6.7 µM (≈ 16 µg/mL). Also, the MIC in assay [5] is 6.7 µM (≈ 16 µg/mL); in [6] it was 3.35 µM (≈ 8 µg/mL); in assay [7], 6.7 µM (≈ 16 µg/mL); in assay [8] it was no less than 53.6 µM; against Vibrio harveyi, 1.68 µM (≈ 4 µg/mL); in assay [9], 26.8 µM (≈ 64 µg/mL). Moreover, the minimum inhibitory concentration (MIC) in assay [10] came to 6.7 µM (≈ 16 µg/mL); in assay [11], 6.7 µM (≈ 16 µg/mL); in assay [12] it was 6.7 µM (≈ 16 µg/mL); in the assay on Vibrio alginolyticus, 3.35 µM (≈ 8 µg/mL); against Lactococcus garvieae it was 26.8 µM (≈ 64 µg/mL); in assay [13], 13.4 µM (≈ 32 µg/mL). In assay [14], this compound showed a minimum inhibitory concentration (MIC) of 3.35 µM (≈ 8 µg/mL).

Turning to `CC[C@H](C)[C@H](NC(=O)[C@H](CCCCN)NC(=O)[C@H](CS)NC(=O)[C@H](C)NC(=O)[C@@H](NC(=O)[C@H](Cc1ccccc1)NC(=O)CNC(=O)[C@H](CC(C)C)NC(=O)CNC(=O)[C@@H](NC(=O)[C@H](CCCCN)NC(=O)CNC(=O)[C@H](CC(C)C)NC(=O)[C@H](CCCCN)NC(=O)[C@H](CCCCN)NC(=O)[C@H](CC(C)C)NC(=O)[C@@H](NC(=O)[C@H](CO)NC(=O)[C@H](CC(C)C)NC(=O)[C@H](CCSC)NC(=O)[C@@H](N)CO)C(C)C)C(C)C)C(C)C)C(=O)N[C@@H](CC(N)=O)C(=O)N[C@@H](CCCCN)C(=O)N[C@@H](CCC(N)=O)C(=O)N[C@@H](CS)C(=O)O` [SMLSVLKKLGKVGLGFVACKINKQC], the MIC in [15] was 10 µM (≈ 26.7 µg/mL); in assay [16] it was 2.5 µM (≈ 6.66 µg/mL); in the assay with Escherichia coli it was 5 µM (≈ 13.3 µg/mL); in [17], no less than 100 µM; in the assay with Escherichia coli U7794, 5 µM (≈ 13.3 µg/mL); in assay [18], 5 µM (≈ 13.3 µg/mL). The minimum inhibitory concentration (MIC) worked out at 5 µM (≈ 13.3 µg/mL) in [19]; 20 µM (≈ 53.3 µg/mL) in [20]; 5 µM (≈ 13.3 µg/mL) in assay [21]; 10 µM (≈ 26.7 µg/mL) in assay [22]; 10 µM (≈ 26.7 µg/mL) in assay [23]; 20 µM (≈ 53.3 µg/mL) in the assay with Candida albicans. The MIC in assay [24] is 2.5 µM (≈ 6.66 µg/mL); in [25], 5 µM (≈ 13.3 µg/mL); in [26] it was 5 µM (≈ 13.3 µg/mL); in assay [27], 10 µM (≈ 26.7 µg/mL); in [28], 5 µM (≈ 13.3 µg/mL); in assay [29] it was 5 µM (≈ 13.3 µg/mL). The minimum inhibitory concentration (MIC) in assay [30] worked out at 10 µM (≈ 26.7 µg/mL); in [31] it was 10 µM (≈ 26.7 µg/mL); in [32], 5 µM (≈ 13.3 µg/mL); in assay [33], 5 µM (≈ 13.3 µg/mL); with Escherichia coli U7103 it was 2.5 µM (≈ 6.66 µg/mL); in assay [34], 5 µM (≈ 13.3 µg/mL). Moreover, the MIC was 2.5 µM (≈ 6.66 µg/mL) in [35]; 5 µM (≈ 13.3 µg/mL) in assay [36]; 10 µM (≈ 26.7 µg/mL) against Staphylococcus aureus; 5 µM (≈ 13.3 µg/mL) in [37]; 10 µM (≈ 26.7 µg/mL) in assay [38]; 5 µM (≈ 13.3 µg/mL) in [39].

As to `CC(C)[C@H](NC(=O)[C@H](CS)NC(=O)[C@@H](NC(=O)[C@H](CCCN=C(N)N)NC(=O)[C@H](CCCCN)NC(=O)CNC(=O)[C@H](CC(N)=O)NC(=O)[C@H](CS)NC(=O)[C@@H](N)Cc1ccc(O)cc1)C(C)C)C(=O)N[C@@H](CS)C(=O)N[C@@H](CCCN=C(N)N)C(N)=O` [YCNGKRVCVCR], the MIC came out at 23.1 µM (≈ 30 µg/mL) in assay [40]; 5.77 µM (≈ 7.49 µg/mL) in assay [41]; 11.5 µM (≈ 15 µg/mL) in assay [42]; 11.5 µM (≈ 15 µg/mL) in [43]; 11.5 µM (≈ 15 µg/mL) in assay [44]; 11.5 µM (≈ 15 µg/mL) in assay [45]. Further, the MIC in assay [46] is 23.1 µM (≈ 30 µg/mL); in [47], 11.5 µM (≈ 15 µg/mL); in the assay with Staphylococcus aureus it was greater than 76.9 µM; in assay [48], 38.4 µM (≈ 50 µg/mL).
